Test results: ChEMBL document CHEMBL5226294, “Natural bioeffective cyclooligopeptides from plant seeds of Annona genus” (Eur J Med Chem, 2021)
Converted amounts (≈) assume the structure as drawn. Where a SMILES comes first, the peptide text is derived from it. [ ]: non-standard residue; d: D form. Met(O) = CS(=O)CC[C@H](N)C(=O)O; Dab = NCC[C@H](N)C(=O)O

Columns and labels:
[1] = tested on: KB; assay: Cytotoxicity against human KB cells assessed as reduction in cell viability incubated for 3 days; assay type: functional, cell-based; conditions: 72 h
[2] = tested on: Pseudomonas aeruginosa; assay: Antibacterial activity against Pseudomonas aeruginosa MUMC 266 assessed as inhibition of bacterial growth incubated for 18 hrs by disk diffusion method; assay type: functional
[3] = tested on: Escherichia coli; assay: Antibacterial activity against Escherichia coli MUMC 106 assessed as inhibition of bacterial growth incubated for 18 hrs by disk diffusion method; assay type: functional
[4] = tested on: Candida albicans; assay: Antifungal activity against Candida albicans MUMC 29 assessed as inhibition of fungal growth incubated for 48 hrs by disk diffusion method; assay type: functional
[5] = Cytotoxicity against mouse DLA cell assessed as reduction in cell viability incubated for 3 hrs by tryphan blue dye based assay; assay type: toxicity; conditions: DLA cells
[6] = Cytotoxicity against mouse EAC cell assessed as reduction in cell viability incubated for 3 hrs by tryphan blue dye based assay; assay type: toxicity; conditions: EAC (Ehrlich) cells
[7] = tested on: Candida albicans; assay: Antifungal activity against Candida albicans MUMC 29 assessed as increase in inhibition of fungal growth incubated for 48 hrs by disk diffusion method relative to griseofulvin; assay type: functional; parameters: scale not given: the % may be the effect or the level left
[8] = tested on: Pseudomonas aeruginosa; assay: Antibacterial activity against Pseudomonas aeruginosa MUMC 266 assessed as increase in inhibition of bacterial growth incubated for 18 hrs by disk diffusion method relative to ciprofloxacin; assay type: functional; parameters: scale not given: the % may be the effect or the level left
[9] = tested on: Escherichia coli; assay: Antibacterial activity against Escherichia coli MUMC 106 assessed as increase in inhibition of bacterial growth incubated for 18 hrs by disk diffusion method relative to ciprofloxacin; assay type: functional; parameters: scale not given: the % may be the effect or the level left
[10] = tested on: KB; assay: Cytotoxicity against human KB cells assessed as reduction in cell viability; assay type: functional, cell-based
[11] = tested on: DU-145; assay: Cytotoxicity against human DU-145 cells assessed as inhibition of cell growth incubated for 72 hrs by XTT assay; assay type: functional, cell-based; conditions: DU-145, 72 h
[12] = tested on: Pseudomonas aeruginosa; assay: Antibacterial activity against Pseudomonas aeruginosa assessed as inhibition of bacterial growth incubated for 18 hrs by disc diffusion method; assay type: functional
[13] = tested on: Klebsiella pneumoniae; assay: Antibacterial activity against Klebsiella pneumoniae assessed as inhibition of bacterial growth incubated for 18 hrs by disc diffusion method; assay type: functional
[14] = tested on: Trichophyton mentagrophytes; assay: Antifungal activity against Trichophyton mentagrophytes assessed as inhibition of fungal growth incubated for 48 hrs by serial plate dilution method; assay type: functional
[15] = tested on: Microsporum audouinii; assay: Antifungal activity against Microsporum audouinii assessed as inhibition of fungal growth incubated for 48 hrs by serial plate dilution method; assay type: functional
[16] = Cytotoxicity against mouse DLA cell assessed as reduction in cell viability; assay type: toxicity, cell-based; conditions: DLA cells
[17] = Cytotoxicity against mouse EAC cell assessed as reduction in cell viability; assay type: toxicity, cell-based; conditions: EAC (Ehrlich) cells
[18] = tested on: Trichophyton mentagrophytes; assay: Antimicrobial activity against Trichophyton mentagrophytes MUMC 665 assessed as inhibition of microbial growth by disk diffusion method; assay type: functional
[19] = tested on: Microsporum audouinii; assay: Antimicrobial activity against Microsporum audouinii MUMC 545 assessed as inhibition of microbial growth by disk diffusion method; assay type: functional
[20] = tested on: KB; assay: Cytotoxicity against human KB cells assessed as inhibition of cell growth at 6.25 to 100 uM incubated for 72 hrs by MTT assay; assay type: functional; parameters: scale not given: the % may be the effect or the level left; conditions: dose 6.25-100 µM
[21] = tested on: HL-60; assay: Cytotoxicity against human HL-60 cells assessed as inhibition of cell growth at 6.25 to 100 uM incubated for 72 hrs by MTT assay; assay type: functional; parameters: scale not given: the % may be the effect or the level left; conditions: dose 6.25-100 µM

For `CC(C)C[C@@H]1NC(=O)CNC(=O)[C@H](Cc2ccccc2)NC(=O)[C@H](Cc2ccc(O)cc2)NC(=O)[C@@H]2CCCN2C(=O)CNC1=O` [Cherimolacyclopeptide E] (cyclo(FGLGPY)), the IC50 [1] was 0.017 µM, the MIC [2] was 6 µg/mL (≈ 9.45 µM) and the MIC [3] was 12.5 µg/mL (≈ 19.7 µM). For the same molecule, the MIC [4] was 6 µg/mL (≈ 9.45 µM), the CC50 at 3 h [5] was 2.76 µM and the CC50 at 3 h [6] was 4.96 µM. The Activity [7] was 25%, the Activity [8] was 12% and the Activity [9] was 12%.
In the case of `COc1cccc2c1C(=O)c1c(O)c3c(c(O)c1C2=O)C[C@@](O)(C(=O)CO)C[C@@H]3O[C@H]1C[C@H](N)[C@H](O)[C@H](C)O1` [DOXORUBICIN], the IC50 [10] is reported as 0.02 µM and the IC50 [11] is reported as 1.1 µM.
Molecule `CC(C)C[C@@H]1NC(=O)CNC(=O)[C@@H]2CCCN2C(=O)[C@H](CC(N)=O)NC(=O)[C@H](C)NC(=O)[C@H](Cc2ccc(O)cc2)NC(=O)[C@@H]2CCCN2C1=O` [CYCLOMONTANIN D] (cyclo(ANPGLPY)) has an MIC [12] of 6 µg/mL (≈ 8.42 µM), an MIC [13] of 6 µg/mL (≈ 8.42 µM) and an MIC [14] of 6 µg/mL (≈ 8.42 µM). It also gave an MIC [15] of 6 µg/mL (≈ 8.42 µM).
`CC(C)C[C@@H]1NC(=O)[C@H](Cc2c[nH]c3ccccc23)NC(=O)[C@H](C)NC(=O)[C@H](CC(N)=O)NC(=O)[C@@H]2CCCN2C(=O)[C@H]([C@@H](C)O)NC(=O)CNC1=O` (cyclo(AWLGTPN)) gave a CC50 [16] of 11.6 µM, a CC50 [17] of 14.1 µM and an MIC [18] of 6 µg/mL. For the same molecule, the MIC [19] was 6 µg/mL.
Work on `CC[C@H](C)[C@@H]1NC(=O)[C@@H]2CCCN2C(=O)[C@H](CC(C)C)NC(=O)[C@H](CC[S+](C)[O-])NC(=O)CNC(=O)[C@H]([C@@H](C)O)NC(=O)[C@H](CCC(N)=O)NC(=O)[C@@H]2CCCN2C1=O` (stereo partly drawn) (cyclo(G[Met(O)]LPIPQT)) yielded an IC50 [10] of 45 µM.
With `CC[C@H](C)[C@@H]1NC(=O)[C@@H]2CCCN2C(=O)[C@H](CC(C)C)NC(=O)[C@H](CCSC)NC(=O)CNC(=O)[C@H]([C@@H](C)O)NC(=O)[C@H](CCC(N)=O)NC(=O)[C@@H]2CCCN2C1=O` (cyclo(GMLPIPQT)) the IC50 [10] was 0.6 µM.
In the case of `O=c1[nH]cc(F)c(=O)[nH]1` [FLUOROURACIL], the CC50 at 3 h [5] is reported as 37.4 µM and the CC50 at 3 h [6] is reported as 37.4 µM.
`CC[C@H](C)[C@@H]1NC(=O)[C@@H]2CCCN2C(=O)CNC(=O)[C@H](C)NC(=O)[C@H](Cc2ccc(O)cc2)NC1=O` (cyclo(AGPIY)) gave an Activity [20] of less than 30% and an Activity [21] of less than 30%.
Molecule `CC(C)C[C@@H]1NC(=O)CNC(=O)[C@@H]2CCCN2C(=O)[C@H]([C@@H](C)O)NC(=O)[C@H](C(C)C)NC(=O)[C@H](C)NC(=O)[C@H](CO)NC1=O` has an IC50 [11] of 54.9 µM.
In the case of `CC[C@H](C)[C@@H]1NC(=O)CNC(=O)[C@H](CCSC)NC(=O)CNC(=O)[C@@H]2CCCN2C(=O)[C@H](CC(C)C)NC(=O)[C@H](Cc2ccc(O)cc2)NC1=O` (cyclo(GIYLPGM)), the IC50 [10] is reported as 16.5 µM and the IC50 [1] is reported as 16.5 µM.
Molecule `CC(C)C[C@@H]1NC(=O)[C@H](Cc2ccc(O)cc2)NC(=O)[C@@H]2CCCN2C(=O)[C@@H]2CCCN2C(=O)[C@H](C(C)C)NC(=O)CNC(=O)[C@@H]2CCCN2C1=O` (cyclo(GVPPYLP)) has an Activity [20] of less than 30% and an Activity [21] of less than 30%.
`CC[C@H](C)[C@@H]1NC(=O)[C@@H]2CCCN2C(=O)[C@H](C(C)C)NC(=O)[C@H](C)NC(=O)CNC(=O)[C@@H]2CCCN2C(=O)[C@H](C)NC(=O)[C@H](Cc2ccc(O)cc2)NC1=O` (cyclo(APGAVPIY)) showed an IC50 [10] of 0.52 µM, an IC50 [1] of 0.52 µM and a CC50 at 3 h [5] of 6.72 µM. For the same molecule, the CC50 at 3 h [6] was 11.9 µM.
With `CC[C@H](C)[C@@H]1NC(=O)CNC(=O)[C@H](CCSC)NC(=O)CNC(=O)[C@@H]2CCCN2C(=O)[C@H](CCSC)NC(=O)[C@@H]2CCCN2C(=O)[C@H](CC(C)C)NC(=O)[C@H](Cc2ccc(O)cc2)NC1=O` (cyclo(GIYLPMPGM)) the IC50 [1] was 0.06 µM.
Molecule `CC[C@H](C)[C@@H]1NC(=O)[C@H](C)NC(=O)[C@H](C(C)C)NC(=O)[C@H]([C@@H](C)O)NC(=O)CNC(=O)[C@H](Cc2ccc(O)cc2)NC(=O)[C@H](CO)NC(=O)[C@H](CCN)NC(=O)[C@@H]2CCCN2C1=O` (cyclo(AIP[Dab]SYGTV)) has an IC50 [11] of 27.3 µM.
With `CC(C)C[C@@H]1NC(=O)CNC(=O)[C@@H]2CCCN2C(=O)[C@H]([C@@H](C)O)NC(=O)[C@H](C(C)C)NC(=O)[C@H](C)NC(=O)[C@H](CC(N)=O)NC1=O` the IC50 [10] was 0.97 µM.
Work on `CC(C)C[C@@H]1NC(=O)[C@H](C(C)C)NC(=O)[C@H](C(C)C)NC(=O)CNC(=O)[C@H](C)NC(=O)CNC(=O)[C@@H]2CCCN2C1=O` (cyclo(AGVVLPG)) yielded an IC50 [10] of 0.73 µM.
